The source of these data is patent US8785463B2, “GPR 119 agonists” (Cadila Healthcare Limited, priority 2010, dated 2014).

The structures appear in SMILES notation.

For one experiment, the target named is T1, human GPR 119 receptor (Homo sapiens, UniProt Q8TDV5).
T1 construct: expressed in transfected cells
T1 sequence (Q8TDV5 1-335): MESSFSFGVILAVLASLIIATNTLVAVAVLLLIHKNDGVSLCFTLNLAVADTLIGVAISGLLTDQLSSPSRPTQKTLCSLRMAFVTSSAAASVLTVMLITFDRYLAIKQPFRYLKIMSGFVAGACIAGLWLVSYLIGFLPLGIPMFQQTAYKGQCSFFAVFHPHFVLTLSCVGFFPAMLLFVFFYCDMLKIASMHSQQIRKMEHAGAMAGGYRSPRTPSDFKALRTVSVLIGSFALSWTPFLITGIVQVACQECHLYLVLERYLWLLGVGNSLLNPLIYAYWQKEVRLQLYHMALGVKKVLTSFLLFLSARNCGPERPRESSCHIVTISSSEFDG
The experiment can be described thus: cAMP assay in stable cell line expressing recombinant human GPR 119 receptor. It is filed as cell-based. The conditions noted are these: for Fold increase in cyclic AMP with respective to DMSO: DMSO = 1. From the text:
A stable cell line expressing recombinant human GPR 119 receptor was established and used to investigate the efficacy of the compounds of the invention based on the intracellular levels of cyclic AMP (cAMP) using commercially available cAMP kits.
(In general: cAMP levels reflect the balance of adenylyl cyclase and phosphodiesterase activity.)

A further experiment relates to C57/BL6 mice. The experiment can be described thus: Oral Glucose Tolerance Tests (OGTT) in C57/BL6 mice. The experiment is classed as in vivo. To be noted: single oral dose, glucose load 3 gm/kg, serum glucose AUC, head 50 mg/kg. Here is the method: In Vivo Efficacy Studies: Oral Glucose Tolerance Tests (OGTT) in C57/13L6 mice:
C57/BL6 mice of 6-8 week age are used for this experiment. Animals are grouped based on non-fasting serum glucose levels and kept on fasting for overnight (day before OGTT). On the experiment day, […], 30 min post dosing animals are bled for basal glucose level estimation and at the same time glucose load (3 gm/kg) will be administered per orally. Blood is collected at time points corresponding to 20, 40, 60 and 120 min after glucose load administration. Serum is separated for determination of glucose levels and change in area under curve for glucose is calculated and provided in Table 3 as % to reduction in AUC.

The subject of a further experiment is db/db mice. Briefly: Oral Glucose Tolerance Tests (OGTT) in db/db mice. It is filed as in vivo. The conditions noted are these: single oral dose 50 mg/kg, glucose load 2 g/kg, AUC glucose excursion vs vehicle control. As to the method:
Oral Glucose Tolerance Tests (OGTT) in db/db mice:
db/db mice of 5-7 week age are used for this experiment. Animals were kept on fasting and are grouped based on fasting serum glucose levels and after grouping OGTT was performed. Each animal receive a single dose of vehicle/test compounds (50 mg/kg) administered orally, 30 min post dosing animals are bled for basal glucose level estimation and at the same time glucose load (2 g/kg) will be administered per orally. Blood is collected at time points corresponding to 30, 60 and 120 min after glucose load administration. Serum is separated for determination of glucose levels and change in area under curve for glucose and glucose excursion is calculated from Vehicle control with glucose load Vs water control group without glucose load and provided in Table 4 as % reduction in AUC glucose excursion Vs Vehicle control is calculated.

With `CC(C)(C)OC(=O)N1CCC(Oc2cc(Oc3ccc(/C=C4\SC(=O)NC4=O)cc3)ncn2)CC1` [Example 12, (Z)-tert-Butyl 4-((6-(4-((2,4-dioxothiazolidin-5-ylidene)methyl)phenoxy)pyrimidin-4-yl)oxy)piperidine-1-carboxylate], on human GPR 119 receptor, the EC50 (usually the midpoint of the concentration-response curve) is 130 nM. Besides, the “Fold increase in cyclic AMP with respective to DMSO” value (“Fold increase in cyclic AMP” for short) is 2.22 fold at human GPR 119 receptor (10 nM compound), 4.47 fold at human GPR 119 receptor (100 nM compound) and 7.00 fold on human GPR 119 receptor (1 uM compound). The “% reduction in AUC at 50 mg/kg” value in the experiment on C57/BL6 mice was 23.4%; in the experiment on db/db mice, 66.7%.
For the compound `Cc1c(Oc2cccc(/C=C3\SC(=O)NC3=O)c2)ncnc1OC1CCN(C(=O)OC(C)(C)C)CC1` [Example 9, (Z)-tert-Butyl 4-((6-(3-((2,4-dioxothiazolidin-5-ylidene)methyl)phenoxy)-5-methylpyrimidin-4-yl)oxy)piperidine-1-carboxylate], the EC50 at human GPR 119 receptor was found to be 43 nM. The “Fold increase in cyclic AMP” value on human GPR 119 receptor (10 nM compound) was found to be 2.54 fold; on human GPR 119 receptor (100 nM compound), 4.86 fold; at human GPR 119 receptor (1 uM compound), 6.57 fold. Besides, the entries for the “% reduction in AUC at 50 mg/kg” value in the experiment on C57/BL6 mice and in the experiment with db/db mice were 32.4% and 69.1%, respectively.
Regarding `Cc1c(Oc2ccc(/C=C3\SC(=O)NC3=O)cc2)ncnc1OC1CCN(C(=O)OC(C)(C)C)CC1` [Example 1, (Z)-tert-Butyl 4-((6-(4-((2,4-dioxothiazolidin-5-ylidene)methy 1)phenoxy)-5-methylpyrimidin-4-yl)oxy)piperidine-1-carboxylate], the EC50 on human GPR 119 receptor is 88 nM. Besides, the “Fold increase in cyclic AMP” value is 0.90 fold on human GPR 119 receptor (10 nM compound), 2.27 fold on human GPR 119 receptor (100 nM compound) and 3.96 fold on human GPR 119 receptor (1 uM compound). The entries for the “% reduction in AUC at 50 mg/kg” value in the experiment on C57/BL6 mice and in the experiment with db/db mice were 35.0% and 56.2%, respectively.
Take `CCOC(=O)CN1C(=O)S/C(=C\c2ccc(Oc3ncnc(OC4CCN(C(=O)OC(C)(C)C)CC4)c3C)cc2)C1=O` [Example 2, (Z)-tert-Butyl 4-((6-(4-((3-(2-ethoxy-2-oxoethyl)-2,4-dioxothiazolidin-5-ylidene)methyl)phenoxy)-5-methylpyrimidin-4-yl)oxy)piperidine-1-carboxylate]: the “Fold increase in cyclic AMP” value at human GPR 119 receptor (10 nM compound) is reported as 5.90 fold; on human GPR 119 receptor (100 nM compound) it was 8.00 fold; on human GPR 119 receptor (1 uM compound), 12.56 fold. The “% reduction in AUC at 50 mg/kg” value in the experiment with C57/BL6 mice amounted to 13.0%; with db/db mice, 47.3%.
Regarding `Cc1c(Oc2ccc(/C=C3\SC(=O)NC3=O)cc2)ncnc1OC1CCN(c2nc(C(C)C)no2)CC1` [Example 7, (Z)-5-(4-((6-((1-(3-iso-Propyl-1,2,4-oxadiazol-5-yl)piperidin-4-yl)oxy)-5-methylpyrimidin-4-yl)oxy)benzylidene)thiazolidine-2,4-dione], the EC50 on human GPR 119 receptor was 124 nM. Moreover, the results for the “Fold increase in cyclic AMP” value at human GPR 119 receptor (10 nM compound), at human GPR 119 receptor (100 nM compound) and at human GPR 119 receptor (1 uM compound) were 0.79 fold, 1.32 fold and 2.24 fold, respectively. The “% reduction in AUC at 50 mg/kg” value came to 29.0% in the experiment with C57/BL6 mice and 22.4% in the experiment on db/db mice.
For the compound `Cc1c(Oc2ccc(/C=C3\SC(=O)NC3=O)cc2)ncnc1OC1CCN(C(=O)OC(C)C)CC1` [Example 16, (Z)-iso-Propyl 4-((6-(4-((2,4-dioxothiazolidin-5-ylidene)methyl)phenoxy)-5-methylpyrimidin-4-yl)oxy)piperidine-1-carboxylate], the “Fold increase in cyclic AMP” value came to 1.91 fold on human GPR 119 receptor (10 nM compound), 2.54 fold at human GPR 119 receptor (100 nM compound) and 3.17 fold at human GPR 119 receptor (1 uM compound).
In the case of `Cc1c(Oc2ccc(/C=C3\SC(=O)NC3=O)cc2)ncnc1OC1CCN(Cc2ccccc2)CC1` [Example 38, (Z)-5-(4-((6-((1-Benzylpiperidin-4-yl)oxy)-5-methylpyrimidin-4-yl)oxy)benzylidene)thiazolidine-2,4-dione], the “Fold increase in cyclic AMP” value is 0.34 fold on human GPR 119 receptor (10 nM compound), 0.67 fold at human GPR 119 receptor (100 nM compound) and 1.64 fold at human GPR 119 receptor (1 uM compound).
`CC(C)c1noc(N2CCC(Oc3cc(Oc4cccc(/C=C5\SC(=O)NC5=O)c4)ncn3)CC2)n1` [Example 66, (Z)-5-(3-((6-((1-(3-isopropyl-1,2,4-oxadiazol-5-yl)piperidin-4-yl)oxy)pyrimidin-4-yl)oxy)benzylidene)thiazolidine-2,4-dione]: the EC50 at human GPR 119 receptor amounted to 71 nM. For the same compound, the “% reduction in AUC at 50 mg/kg” value in the experiment with C57/BL6 mice was found to be 41.1%.
For the compound `O=C1NC(=O)/C(=C/c2cccc(Oc3cc(OC4CCN(c5ncccn5)CC4)ncn3)c2)S1` [Example 42, (Z)-5-(3-((6-((1-(Pyrimidin-2-yl)piperidin-4-yl)oxy)pyrimidin-4-yl)oxy)benzylidene)thiazolidine-2,4-dione], the entries for the “Fold increase in cyclic AMP” value at human GPR 119 receptor (10 nM compound), at human GPR 119 receptor (100 nM compound) and at human GPR 119 receptor (1 uM compound) were 0.65 fold, 1.27 fold and 3.10 fold, respectively.
For `Cc1c(Oc2cccc(/C=C3\SC(=O)NC3=O)c2)ncnc1OC1CCN(C(=O)OCc2ccccc2)CC1` [Example 50, (Z)-Benzyl 4-((6-(3-((2,4-dioxothiazolidin-5-ylidene)methyl)phenoxy)-5-methylpyrimidin-4-yl)oxy)piperidine-1-carboxylate] the same measures were 1.73 fold, 4.66 fold and 5.74 fold.
As to `Cc1c(Oc2ccc(/C=C3\SC(=O)NC3=O)cc2)ncnc1OC1CCN(C(=O)OCc2ccccc2)CC1` [Example 13, (Z)-Benzyl 4-((6-(4-((2,4-dioxothiazolidin-5-ylidene)methyl)phenoxy)-5-methylpyrimidin-4-yl)oxy)piperidine-1-carboxylate], the “Fold increase in cyclic AMP” value worked out at 0.61 fold on human GPR 119 receptor (10 nM compound), 0.63 fold at human GPR 119 receptor (100 nM compound) and 1.42 fold on human GPR 119 receptor (1 uM compound).
For `CCOC(=O)N1CCC(Oc2cc(Oc3cccc(/C=C4\SC(=O)NC4=O)c3)ncn2)CC1` [Example 51, (Z)-Ethyl 4-((6-(3-((2,4-dioxothiazolidin-5-ylidene)methyl)phenoxy)pyrimidin-4-yl)oxy)piperidine-1-carboxylate] the same measures were 0.79 fold, 1.25 fold and 2.81 fold.
